One compound from ChEMBL document CHEMBL3044868, “Effect of pre-sowing and pre-emergence glyphosate applications on weedsin stale seedbed cotton” (2009) can be followed below.

Common to all, as to type: functional
The test system of assay [1] is Gossypium hirsutum. In words: Increase of seed cotton yield in Gossypium hirsutum (cotton) at 2.88 kg a.i./ha sprayed at 2 to 3 days before sowing without seedbed preparation measured during harvest time.
The subject of assay [2] is Gossypium hirsutum. Briefly: Increase of boll weight in Gossypium hirsutum (cotton) at 2.88 kg a.i./ha sprayed at 2 to 3 days before sowing without seedbed preparation measured during harvest time.
The subject of assay [3] is Gossypium hirsutum. Briefly: Increase of plant height in Gossypium hirsutum (cotton) at 2.88 kg a.i./ha sprayed at 2 to 3 days before sowing without seedbed preparation measured during harvest time.
Assay [4] relates to Gossypium hirsutum. Briefly: Increase of cotton cover in Gossypium hirsutum (cotton) at 2.88 kg a.i./ha sprayed at 2 to 3 days before sowing without seedbed preparation measured 2 weeks after emergence.
Assay [5] has as its system Gossypium hirsutum. In words: Increase of seed cotton yield in Gossypium hirsutum (cotton) at 2.88 kg a.i./ha as pre-emergence treatment 3 to 4 days after sowing with seedbed preparation measured during harvest time.
Assay [6] relates to Gossypium hirsutum. In words: Increase of boll weight in Gossypium hirsutum (cotton) at 2.88 kg a.i./ha as pre-emergence treatment 3 to 4 days after sowing with seedbed preparation measured during harvest time.
For assay [7], the system named is Gossypium hirsutum. Briefly: Increase of plant height in Gossypium hirsutum (cotton) at 2.88 kg a.i./ha as pre-emergence treatment 3 to 4 days after sowing with seedbed preparation measured during harvest time.
Assay [8] relates to Gossypium hirsutum. Briefly: Increase of cotton cover in Gossypium hirsutum (cotton) at 2.88 kg a.i./ha as pre-emergence treatment 3 to 4 days after sowing with seedbed preparation measured 2 weeks after emergence.
Assay [9] has as its system Gossypium hirsutum. In words: Increase of seed cotton yield in Gossypium hirsutum (cotton) at 2.88 kg a.i./ha as pre-emergence treatment 3 to 4 days after sowing without seedbed preparation measured during harvest time.
The subject of assay [10] is Gossypium hirsutum. In words: Increase of boll weight in Gossypium hirsutum (cotton) at 2.88 kg a.i./ha as pre-emergence treatment 3 to 4 days after sowing without seedbed preparation measured during harvest time.
The subject of assay [11] is Gossypium hirsutum. In words: Increase of plant height in Gossypium hirsutum (cotton) at 2.88 kg a.i./ha as pre-emergence treatment 3 to 4 days after sowing without seedbed preparation measured during harvest time.
Assay [12] relates to Gossypium hirsutum. In words: Increase of cotton cover in Gossypium hirsutum (cotton) at 2.88 kg a.i./ha as pre-emergence treatment 3 to 4 days after sowing without seedbed preparation measured 2 weeks after emergence.

Molecules are shown by their SMILES.

On to `O=C(O)CNCP(=O)(O)O` [GLYPHOSATE], for which the values for the Crop_yield in the assay with Gossypium hirsutum [1], in the assay with Gossypium hirsutum [5] and in the assay with Gossypium hirsutum [9] were 6 tons/ha, 4.8 tons/ha and 5.5 tons/ha, respectively. In addition, the Activity stood at 5.2 g in the assay on Gossypium hirsutum [2]; 90.7 cm with Gossypium hirsutum [3]; 11.7% in the assay with Gossypium hirsutum [4]; 4.3 g with Gossypium hirsutum [6]; 91.5 cm in the assay with Gossypium hirsutum [7]; 7% with Gossypium hirsutum [8]. The Activity in the assay with Gossypium hirsutum [10] came to 5.9 g; with Gossypium hirsutum [11], 91.1 cm; with Gossypium hirsutum [12] it was 16.3%.
